The record followed here is article PMC8887546, “Design and Synthesis of Brain Penetrant Glycopeptide Analogues of PACAP With Neuroprotective Potential for Traumatic Brain Injury and Parkinsonism” (Frontiers in drug discovery, 2022).

The test system of assay [1] is C57BL/6 mice, diffuse TBI. Description: Neurological severity score after TBI. The format is in vivo, mouse. As to conditions: 10 mg/kg i.p. 30 min prior to TBI, 2, 5 and 7 DPI. Here is the method: 30 min prior to TBI or sham injury, mice were randomly assigned to a therapeutic group and received an intraperitoneal injection of 2LS80Mel (10 mg/kg) or sterile saline (0.25 ml). Groups were as follows: TBI-2LS80Mel n = 17; TBI-vehicle n = 17; sham n = 22 (vehicle n = 11, 2LS80Mel n = 11).
For injury induction 24 h post-surgery, mice were re-anesthetized with 5% isoflurane delivered for 3 min. The cap was removed from the injury-hub assembly and the dura was visually inspected through the hub to ensure it was intact with no debris. […] Injured mice were monitored for presence of a forearm fencing response and righting reflex times were recorded as indicators of injury severity ([Hosseini and Lifshitz, 2009]). […] After spontaneously righting, mice were placed in a heated recovery cage and monitored until they were ambulatory (approximately 5–15 min) before being returned to their piezoelectric sleep cage (see below). […]
Neurological impairments were assessed at 2, 5, and 7 DPI using an 8-point NSS paradigm adapted from those previously used in experimental models of TBI and previously reported by our lab ([Chen et al., 1996]; [Semple et al., 2010]; [Pleasant et al., 2011]; [Ziebell et al., 2011]; [Rowe et al., 2018]; [Rowe et al., 2019]). […]

In assay [2] the test system is Sprague Dawley rats, 6-OHDA lesion. Put plainly: Microglia morphology in substantia nigra, IBA1 skeleton analysis (study 2). The format is in vivo, rat. As to conditions: more severe (40%) lesion, treatment vs vehicle, n = 7. The protocol: Rats were treated with 2LS98Lac or saline (vehicle) as outlined in the Schemes in Figures 9A,B via intraperitoneal (i.p.) injection (15 mg/kg). All animals were made hemi-parkinsonian with unilateral, striatal 6-hydroxydopamine (Sigma Aldrich, St. Louis, MO) injections. After surgery, behavioral assessments were done at 2- and 4-weeks post-surgery. 24 h after the last test animals were either euthanized and whole brains were harvested for future biochemical analysis or perfused and brains collected for immunohistochemistry and stereological assessment of tyrosine hydroxylase-positive (TH+) cells remaining in the SNc. In study 1: n = 16 each group were included, and all underwent the behavioral analysis: n = 16, and for the stereology in the SNc, n = 8 each group was used. In study 2: n = 23 each group were included. […] In the 2LS98Lac group, one video at 4 weeks was lost, reducing n = 22 in this specific analysis, and for the stereology, 2 brains were damaged during processing and could not be included in the stereology of the SNc, therefore […]. For biochemical subanalyses, n = 8 each group. For the microglial morphology subanalysis n = 7 each group.
Three coronal brain sections that contained the substantia nigra (SN) were randomly chosen for each animal. For immunofluorescence of microglia free-floating brain sections were first blocked in 10% horse serum (Vector Laboratories, S-2000–20, Burlingame, CA) and buffer solution (0.01 M PBS, 0.05% Triton, and 0.04% NaN3) for 1 h followed by a 72 h incubation with primary antibodies as appropriate: rabbit anti-IBA1 at 1:1,000 (Wako, 019–19741, Madison, WI), mouse anti-TH at 1:2000 (R& D Systems, MAB7566, Minneapolis, MN). […] All incubation steps were performed at room temperature; washes between incubations were with 0.01 M PBS for 15 min. Vectashield (Vector Laboratories, H-1000) was used to coverslip mounted tissue.
Images were acquired on a confocal microscope (Zeiss NLO 880, San Diego, CA) in 3 fields of view within the SN of each intact and lesioned hemisphere using a ×40 objective (473.33 × 473.33 μm area). […] Threshold parameters were consistent for all images, and the percent area of IBA1 immunofluorescence was measured for each image. The number of cell somas was counted in the IBA1 channel, an approximation of the number of cells imaged in each frame, and all percent area data was divided by this cell count.
Ramified microglial morphology was quantified using an objective and computer-aided skeleton analysis method previously described in detail ([Young and Morrison, 2018]). […] Sampling averages were calculated for each animal within each region (intact SN and lesion SN) prior to statistical analyses. […]

As for `CC[C@H](C)[C@H](NC(=O)CNC(=O)[C@H](CC(=O)O)NC(=O)[C@H](CO)NC(=O)[C@@H](N)Cc1c[nH]cn1)C(=O)N[C@@H](Cc1ccccc1)C(=O)N[C@H](C(=O)N[C@@H](CC(=O)O)C(=O)N[C@@H](CO)C(=O)N[C@@H](Cc1ccc(O)cc1)C(=O)N[C@@H](CO)C(=O)N[C@@H](CCCNC(=N)N)C(=O)N[C@@H](Cc1ccc(O)cc1)C(=O)N[C@@H](CCCNC(=N)N)C(=O)N[C@@H](CCCCN)C(=O)N[C@@H](CCC(N)=O)C(=O)N[C@@H](CC(C)C)C(=O)N[C@@H](C)C(=O)N[C@H](C(=O)N[C@@H](CCCCN)C(=O)N[C@@H](CCCCN)C(=O)N[C@@H](Cc1ccc(O)cc1)C(=O)N[C@@H](CC(C)C)C(=O)N[C@@H](C)C(=O)N[C@@H](C)C(=O)N[C@H](C(=O)N[C@@H](CC(C)C)C(=O)N[C@@H](CO[C@@H]1O[C@H](CO[C@H]2O[C@H](CO)[C@H](O)[C@H](O)[C@H]2O)[C@@H](O)[C@H](O)[C@H]1O)C(N)=O)C(C)C)C(C)C)[C@@H](C)O` [Compound 2LS80Mel], in assay [1], the “Neurological severity score (sensorimotor deficits)” value is “deficits were prevented”.

On to `[2H]C([2H])([2H])C([2H])(C([2H])([2H])[2H])[C@]([2H])(NC(=O)[C@H](C)NC(=O)[C@H](C)NC(=O)[C@H](CC(C)C)NC(=O)[C@H](Cc1ccc(O)cc1)NC(=O)[C@H](CCCCN)NC(=O)[C@H](CCCCN)NC(=O)[C@@]([2H])(NC(=O)[C@H](C)NC(=O)[C@H](CC(C)C)NC(=O)[C@H](CCC(N)=O)NC(=O)[C@H](CCCCN)NC(=O)[C@H](CCCNC(=N)N)NC(=O)[C@H](Cc1ccc(O)cc1)NC(=O)[C@H](CCCNC(=N)N)NC(=O)[C@H](CO)NC(=O)[C@H](Cc1ccc(O)cc1)NC(=O)[C@H](CO)NC(=O)[C@H](CC(=O)O)NC(=O)[C@@H](NC(=O)[C@H](Cc1ccccc1)NC(=O)[C@@H](NC(=O)CNC(=O)[C@H](CC(=O)O)NC(=O)[C@H](CO)NC(=O)[C@@H](N)Cc1c[nH]cn1)[C@@H](C)CC)[C@@H](C)O)C([2H])(C([2H])([2H])[2H])C([2H])([2H])[2H])C(=O)N[C@@H](CC(C)C)C(=O)N[C@@H](CO[C@@H]1O[C@H](CO)[C@@H](O[C@@H]2O[C@H](CO)[C@H](O)[C@H](O)[C@H]2O)[C@H](O)[C@H]1O)C(N)=O` [Compound 2LS98Lac], for which, in assay [2], the “% area IBA-1/cell on the lesioned side” value is “significant increase”, the “Microglial branches/cell on the lesioned side” value was “significant increase”, the “Microglial endpoints/cell on the lesioned side” value is “trend toward increase” and the “Microglial process length/cell on the lesioned side” value was “significant increase”.
